Measured values: patent US20080120039A1, “HORMONE AND DRUG CONCENTRATIONS IN THE PORTAL VEIN AND HEPATIC SINUSOIDS” (Entelos, Inc., priority 2005, published 2008)
Read-outs that look alike come from different tables or passages of the source.

Columns and labels:
[1] = Glucagon infusions with somatostatin; metabolic clearance of glucagon; assay type: in vivo, human
Excerpt: FIGS. 3A and 3B provide graphs of plasma glucagon concentrations during different glucagon infusion rates in human subjects. FIG. 3A illustrates data from studies that report lower glucagon concentrations during glucagon infusions (Chhibber, et al. Metabolism 49(1):39-46 (2000) and Matsuda, et al. Metabolism 51(9):1111-1119 (2002)) and FIG. 3B illustrates data from studies that report higher glucagon concentrations during glucagon infusions (Nielsen, et al., Diabetes 46(12):2007-2016 (1997) and Andrews, et al., J. Clin. Endocrinol. Metab. 88(1):285-291 (2003)). The equation for the regression line in FIG. 3A is y=0.41x+60.15 with r^2=0.96 and the regression line in FIG. 3B is y=x+69.5 with r=0.97.
Different research groups report considerably different glucagon concentrations in response to plasma glucagon infusions. In FIG. 3A, the regression line yields m=0.00041 min/ml, whereas for the regression line for 3B yields m=0.001 min/ml. These differences lead to considerable differences in predicted portal glucagon concentrations in both fasted and fed conditions, as described below. The MCR for glucagon has been reported to be between 7-14 ml/kg/min; taking the reciprocal of the MCR for a 70 kg individual gives m=0.001-0.002 min/ml. As a result of the variability in the reported measurements for this parameter, two different possibilities are considered in the analyses: one where m=0.00041 and another where m=0.001 min/ml.

[2] = cited from earlier work
[3] = dogs; cited from earlier work
[4] = rats; cited from earlier work
[5] = reported; cited from earlier work
[6] = sheep; cited from earlier work
[7] = pigs; cited from earlier work
[8] = healthy patients; cited from earlier work
[9] = cited from earlier work; remark: listed apart in the source

glucagon
m as reciprocal of reported MCR ([1]; for a 70 kg individual): 0.001 to 0.002 min/mL | m (slope of plasma glucagon concentration versus infusion rate) ([1]; studies with higher glucagon concentrations (FIG. 3B)): 0.001 min/ml and ≈ 0.001 min/ml | m (slope of plasma glucagon concentration versus infusion rate) ([1]; studies with lower glucagon concentrations (FIG. 3A), about twice the somatostatin rate): 0.00041 min/ml and ≈ 0.0004 min/ml | hepatic glucagon extraction in humans ([2]; Felig et al.): little or no hepatic glucagon extraction | portal glucagon concentration relative to systemic plasma ([2]; reported in the literature): 1.3-3.0 times higher | hepatic glucagon extraction, f [3]: ≈ 0.2 | hepatic glucagon extraction, f [4]: ≈ 0.5 | MCR for glucagon [5]: 7 to 14 mL/min/kg | hepatic glucagon extraction, f [6]: ≈ 0.07 | hepatic glucagon extraction, f [7]: ≈ 0.1

insulin
metabolic clearance rate (MCR) of insulin [8]: 13 to 27 mL/min/kg | m as reciprocal of reported MCR (for a 70 kg patient): 0.0005 to 0.001 min/mL | m (slope of steady-state systemic plasma concentration versus exogenous infusion rate; reciprocal of MCR) (insulin infusions with somatostatin, healthy individuals, studies of FIG. 2, 70 kg individual): 0.0007 min/ml and approximately 0.0007 min/ml | fractional extraction of insulin by the liver, f ([9]; most estimates): 0.5-0.7 | fractional extraction of insulin by the liver, f ([9]; portal catheterization study and mathematical models based on insulin and c-peptide concentrations): ≈ 0.5 | fractional extraction of insulin by the liver, f ([9]; splanchnic balance studies): 0.7
